Read-outs that look alike come from different tables or passages of the source.
Columns and labels:
[1] = Pharmacokinetic study in mouse; assay type: in vivo, Male CD-1 mice; settings: male, CD-1, plasma; for plasma clearance / Vd: 2 mg/kg, Mouse PK (IV) 2 mpk; for plasma clearance: read-out: Clint (converted); for Vd: read-out: Vss; for AUC(0-t) / Cmax / Tmax / bioavailability / half-life: 10 mg/kg, Mouse PK (PO) 10 mpk; for half-life: read-out: T½ (converted)
Experimental: Male CD-1 mice (16-24 g; 6-8 weeks; purchased from Shanghai SLAC laboratory animal CO. LTD; n=18, with 3 per time point) were treated with a single dose of compounds being tested at 2 mg/kg by intravenous tail-vein injection and 10 mg/kg by oral gavage administration, with both doses formulated in 20% N,N-dimethylacetamide in water. Animals upon PO administration were fasted overnight and fed 4 hours after dosing. Animals upon IV administration were free access to food and water. The study was performed in accordance with the guidelines and standards of the Association for Assessment and Accreditation of Laboratory Animal Care (AAALAC International) and the National Institutes of Health.
The animals were anesthetized via isoflurane at the designated time points, and approximately 110 μL of blood sample was collected via retro-orbital puncture or cardiac puncture for stagger bleeding under the anesthesia with Isoflurane inhalation into EDTA-2K tubes. The blood samples were maintained in wet ice first and centrifuged to obtain plasma (2000 g, 4° C., 5 min) within 15 minutes post sampling. Plasma samples were stored at approximately −70° C. until analysis. For plasma samples not diluted, an aliquot of 20 μL sample was added with 200 μL IS (Propranolol, 100 ng/mL) in ACN. The mixture was vortexed for 10 min and centrifuged at 5800 rpm for 10 min. An aliquot of 0.5 μL supernatant was injected for LC-MS/MS analysis. For 10-fold diluted plasma samples, an aliquot of 2 μL sample was added with 18 μL blank diluted plasma, the dilution factor was 10. The followed operation was the same as no diluted plasma samples. Standard calibration curves were constructed by analyzing a series of control plasma aliquots containing Propranolol (100 ng/mL) as an internal standard and 1.0-3,000 ng/mL testing compounds. Compound concentrations were determine with UPLC-MS/MS-33 (Triple Quad™ 6500 Plus).

HCC827 = assay: Lung cancer panel proliferation inhibition, HCC827; assay type: cell-based; settings: Homo sapiens
Experimental: (§1) Inhibitory ability of compounds synthesized on the proliferation of three panels of cancer cell lines, including 5 breast cancer, 6 liver cancer, and 3 lung cancer cell lines were evaluated. Exponentially growing cells were seeded in the media of choice at various cell densities in 384-well plates with 20 ul per well and incubated overnight at 37° C., 5% CO2 incubator. Compounds were prepared as 10-point, 3-fold serial dilutions in DMSO, beginning at 6 mM. 1 μl of DMSO solutions from the compound stock plates were added to 99 ul of cell media (final top concentration of compound in the assay was 30 uM and the final concentration of DMSO was 0.5%). 20 μL of compound solutions in media were added to each well of plates with cells seeded. After adding compound solutions, assay plates were incubated for 8 and 12 days, respectively, at 37° C., 5% CO2. During this incubation period, cell media was changed every 4 days. After removing old media from cell plates, 40 ul of media with testing compounds dissolved, which were prepared by adding 1 ul of compound DMSO serial solutions to 199 ul of cell media, were added to the assay plates with the same layout as they were initially prepared. After 8 or 12 days, cell viability was measured using the CellTiter-Glo assay kit from Promega (Madison, Wis., USA) by quantitating the ATP present in the cell cultures. 20 μL of CellTiter-Glo reagent was added to each well of the cell plates. Luminescence was read after 10 minute of incubation with the Envision multiple plate reader from PerkinElmer (Waltham, Mass., USA). The concentrations of compounds inhibiting cell viability by 50% (IC50 values) were determined using a sigmoidal dose-response model (variable slopes, four parameters) in Prism 7 (La Jolla, Calif., USA).

BT474 = assay: Breast cancer panel proliferation inhibition, BT474; assay type: cell-based; settings: Homo sapiens
Experimental: as §1

MCF-7 = assay: Breast cancer panel proliferation inhibition, MCF-7; assay type: cell-based; settings: Homo sapiens
Experimental: as §1

[2] = test system: Pancreatic Carcinoma MIA PaCa-2 cell; assay: Cell proliferation inhibition, MIA PaCa-2 (CellTiter-Glo); assay type: cell-based; settings: Homo sapiens, MIA PaCa-2, incubated for 12 days (read after 8 or 12 days), read-out: IC50 (μM) MIA PaCa2
Text: Materials and Cell Lines: Z-138, U251, and MIA PaCa2 cells were purchased from ATCC (American Type Culture Collection, Manassas, Va.) and Chinese Academy of Science (Shanghai, China). Iscove's Modified Dulbecco's Medium (IMDM), Dulbecco's Modified Eagle Medium (DMEM), penicillin-streptomycin, heat inactivated fetal bovine serum (FBS), and horse serum was purchased from ThermoFisher, Waltham, Mass., USA. Corning 96- and 384-well cell culture plates were purchased from ThermoFisher, Waltham, Mass., USA. Cell-Titer Glo® was purchased from Promega Corporation, Madison, Wis., USA.
In order to evaluate the inhibitory ability of compounds synthesized on the proliferation of the Pancreatic Carcinoma MIA PaCa-2 cell, exponentially growing cells were seeded in the culture media of DMEM with 10% FBS, 2.5% horse serum, 1 mM of Sodium Pyruvate and 1% penicillin-streptomycin at a concentration of 2500 cells/ml in a 384-well plate with 20 ul per well and incubated overnight at 37° C., 5% CO2 incubator. Compounds were prepared as 10-point, 3-fold serial dilutions in DMSO, beginning at 6 mM. 1 μl of DMSO solutions from the compound stock plates were added to 99 ul of cell media (final top concentration of compound in the assay was 30 uM and the final concentration of DMSO was 0.5%). 20 μL of compound solutions in media were added to each well of MIA PaCa-2 cell plates. After adding compound solutions, assay plates were incubated for 12 days at 37° C., 5% CO2. During this incubation period, cell media was changed every 4 days. After removing old media from cell plates, 40 ul of media with testing compounds dissolved, which were prepared by adding 1 ul of compound DMSO serial solutions to 199 ul of cell media, were added to the assay plates with the same layout as they were initially prepared. After 8 or 12 days, cell viability was measured using the CellTiter-Glo assay kit from Promega (Madison, Wis., USA) by quantitating the ATP present in the cell cultures. 20 μL of CellTiter-Glo reagent was added to each well of the cell plates. Luminescence was read after 10 minute of incubation with the Envision multiple plate reader from PerkinElmer (Waltham, Mass., USA). The concentrations of compounds inhibiting cell viability by 50% (IC50 values) were determined using a sigmoidal dose-response model (variable slopes, four parameters) in Prism 7 (La Jolla, Calif., USA).

[3] = 192 h, HCC827, 8 days, read-out: IC50 (μM) 8 days
[4] = 288 h, HCC827, 12 days, read-out: IC50 (μM) 12 days
[5] = BT-474, 192 h, BT474, 8 days, read-out: IC50 (μM) 8 days
[6] = BT-474, 288 h, BT474, 12 days, read-out: IC50 (μM) 12 days
[7] = MCF7, 192 h, MCF-7, 8 days, read-out: IC50 (μM) 8 days
[8] = MCF7, 288 h, MCF-7, 12 days, read-out: IC50 (μM) 12 days

Compound	plasma clearance [1]	Vd [1]	AUC(0-t) [1]	Cmax [1]	Tmax [1]	bioavailability [1]	half-life [1]	IC50 (HCC827; [3])	IC50 (HCC827; [4])	IC50 (BT474; [5])	IC50 (BT474; [6])	IC50 (MCF-7; [7])	IC50 (MCF-7; [8])	IC50 [2]
CC(=O)N1CCC(Nc2ccc3c(c2)C(=O)N(C[C@H](O)CN2CCc4ccccc4C2)CC3)CC1 [Compound 24a, (R)-7-((1-acetylpiperidin-4-yl)amino)-2-(3-(3,4-dihydroisoquinolin-2(1H)-yl)-2-hydroxypropyl)-3,4-dihydroisoquinolin-1(2H)-one]	35.7 mL/min/kg	2.48 L/kg	3410 ng·h/mL	3580 ng/mL	0.25 h	73.3%	1.22 h	0.19 µM	0.11 µM	0.11 µM	0.057 µM	0.016 µM	0.026 µM	0.13 µM
CC(=O)N1CCC(Nc2ccc3c(c2)C(=O)N(C[C@H](O)CN2CCc4ccccc4C2)CCO3)CC1 [Compound 52a, (R)-7-((1-acetylpiperidin-4-yl)amino)-4-(3-(3,4-dihydroisoquinolin-2(1H)-yl)-2-hydroxypropyl)-3,4-dihydrobenzo[f][1,4]oxazepin-5(2H)-one]	50.7 mL/min/kg	2.25 L/kg	2720 ng·h/mL	3080 ng/mL	0.25 h	83%	2.86 h	0.16 µM	0.089 µM	0.041 µM	0.03 µM	0.025 µM	0.021 µM	0.114 µM
CC(=O)N1CCC(Nc2cc(C(=O)NC[C@H](O)CN3CCc4ccccc4C3)ncn2)CC1 [Compound C3, reference compound]	44.7 mL/min/kg	1.48 L/kg	2420 ng·h/mL	761 ng/mL	2 h	64.9%	0.798 h	0.34 µM	0.5 µM	0.14 µM	0.056 µM	–	0.029 µM	0.15 µM

— patent US11591326B2, “Inhibitors of protein arginine methyltransferase 5 (PRMT5), pharmaceutical products thereof, and methods thereof” (PHARMABLOCK SCIENCES (NANJING), INC., priority 2018, dated 2023)
